One may read the MIC as the smallest concentration in the dilution series that meets the test's criterion for growth inhibition. The IC50 is the point on the concentration scale where inhibition reaches its midpoint.

Consider ten compounds from ChEMBL document CHEMBL4613260, “NF-κB Inhibitory and Antibacterial Helvolic and Fumagillin Derivatives from Aspergillus terreus” (J Nat Prod, 2020).

The test system of one data set is HEK293. The data set is described as follows: Cytotoxicity against HEK293 cells at 50 uM by SRB assay. The format is cell-based. To be noted: human, hek293, 50 µM.
Data set [1] has as its system Escherichia coli. Nature of the data set: Antibacterial activity against Escherichia coli ATCC 9637 after 24 hrs by resazurin dye based broth microdilution method. The class given is functional. To be noted: W ATCC 9637, 24 h.
The subject of a further data set is A2780. The data set is described as follows: Antiproliferative activity against human A2780 cells at 40 uM after 72 hrs by Cyquant assay. The class given is functional, cell-based.
The subject of data set [2] is Staphylococcus aureus. The data set is described as follows: Antibacterial activity against Staphylococcus aureus ATCC 43300 after 24 hrs by resazurin dye based broth microdilution method. The class given is functional. To be noted: ATCC 43300, 24 h. (In general: Resazurin is reduced to fluorescent resorufin, in cell work by metabolically active cells.)
Data set [3] in a line: Inhibition of TNFalpha-induced NFkappaB activation in human HEK293 cells after 6 hrs by luciferase assay. Conditions: HEK293, 6 h. The class given is cell-based.
Data set [4] relates to Staphylococcus aureus. Nature of the data set: Antibacterial activity against Staphylococcus aureus ATCC 43300 at 50 ug/ml after 24 hrs by resazurin dye based broth microdilution method. The class given is functional, organism-based.
The test system of data set [5] is Escherichia coli. Nature of the data set: Antibacterial activity against Escherichia coli ATCC 9637 at 50 ug/ml after 24 hrs by resazurin dye based broth microdilution method. The class given is functional, organism-based. Conditions: W ATCC 9637.

The source made the active and inactive calls.

For the compound `CC(=O)O[C@H]1C[C@@]2(C)[C@@H](CC[C@H]3[C@@]4(C)CCC(=O)[C@@H](C)[C@@H]4C[C@@H](O)[C@@]32C)/C1=C(\CCC=C(C)C)C(=O)O`, the Activity result with HEK293 was “Non-Toxic”. In addition, the MIC was determined as 25 mg/L against Escherichia coli [1] and 6.25 mg/L in the data set on Staphylococcus aureus [2]. In the data set with A2780, the result was inactive.
In the case of `O=C(N[C@H](CO)[C@H](O)c1ccc([N+](=O)[O-])cc1)C(Cl)Cl` [CHLORAMPHENICOL], the minimal inhibitory concentration (MIC) in the data set with Escherichia coli [1] is 9.66 µM; in the data set on Staphylococcus aureus [2], 19.4 µM.
The compound `Cc1ccc(S(=O)(=O)N[C@@H](Cc2ccccc2)C(=O)CCl)cc1` [TPCK] registered an IC50 in data set [3] of 5.3 µM.
As for `CC(=O)O[C@H]1C[C@@]2(C)[C@@H](CC[C@H]3[C@@]4(C)CCC(=O)[C@@H](C)[C@@H]4[C@H](OC(C)=O)C(=O)[C@@]32C)/C1=C(\CCC=C(C)C)C(=O)O`, the Activity result with HEK293 is listed as “Non-Toxic”. In addition, the MIC amounted to 25 mg/L in the data set on Escherichia coli [1] and 50 mg/L with Staphylococcus aureus [2]. The IC50 in data set [3] is 6.5 µM. Moreover, the result in the data set with A2780 was inactive.
For the compound `CC(=O)O[C@H]1C[C@@]2(C)[C@@H](CC[C@H]3[C@@]4(C)CCC(=O)[C@@H](C)[C@@H]4[C@H](O)C(=O)[C@@]32C)/C1=C(\CCC=C(C)C)C(=O)O`, in the data set with HEK293, the Activity result is listed as “Non-Toxic”. Besides, the results for the MIC in the data set with Escherichia coli [1] and in the data set with Staphylococcus aureus [2] were 25 mg/L and 12.5 mg/L, respectively. Besides, the outcome in the data set with A2780 was inactive.
As to `CC(=O)O[C@H]1C[C@@]2(C)[C@@H](CC[C@H]3[C@@]4(C)C=CC(=O)[C@@H](C)[C@@H]4[C@H](OC(C)=O)C(=O)[C@@]32C)/C1=C(\CCC=C(C)C)C(=O)O` [HELVOLIC ACID], the Activity result in the data set on HEK293 is “Non-Toxic”. Further, the minimum inhibitory concentration (MIC) in the data set with Escherichia coli [1] is 3.12 mg/L; against Staphylococcus aureus [2] it was 12.5 mg/L. In data set [3], this compound returned a half-inhibitory concentration (IC50) of 2.7 µM. For the same compound, the outcome in the data set with A2780 was inactive.
As for `CO[C@@H]1[C@H](OC(=O)/C=C/C=C/C=C/C=C/C(=O)O)CC[C@]2(CO2)[C@H]1[C@@]1(C)O[C@@H]1CC=C(C)C` [FUMAGILLIN], the outcome in the data set with Staphylococcus aureus [4], in the data set with A2780 and in the data set with Escherichia coli [5] was inactive. For the same compound, in the data set with HEK293, the Activity result is “Non-Toxic”.
Regarding `CC(=O)O[C@H]1C[C@@]2(C)[C@@H](CC[C@H]3[C@@]4(C)CCC(=O)[C@@H](C)[C@@H]4CC[C@@]32C)/C1=C(\CCC=C(C)C)C(=O)O`, in the data set with HEK293, the Activity result is “Non-Toxic”. In addition, the minimum inhibitory concentration (MIC) with Escherichia coli [1] turned out to be 25 mg/L; against Staphylococcus aureus [2], 6.25 mg/L. Moreover, the result in the data set on A2780 was inactive.
For the compound `Cc1ccc(S(=O)(=O)/C=C/C#N)cc1`, in data set [3], inhibition was half-maximal at 11 µM (IC50).
Consider `CO[C@@H]1[C@H](OC(=O)/C=C/C=C/C=C/C(=O)O)CC[C@]2(O)CO[C@](C)([C@H](O)CC=C(C)C)[C@@H]12`, for which the outcome in the data set with Staphylococcus aureus [4], in the data set on A2780 and in the data set with Escherichia coli [5] was inactive. For the same compound, the Activity entry in the data set with HEK293 is given as “Non-Toxic”.
